32 molecules from US7528138B2, “Pyrazolo[1,5-a]pyrimidines useful as inhibitors of protein kinases” (Vertex Pharmaceuticals Incorporated, priority 2004, dated 2009) can be followed below.

Broadly, the Ki is the equilibrium dissociation constant of an inhibitor or competing ligand from its target.

What all share (type): biochemical
Assay [1] concerns the target T1, Itk (Homo sapiens, UniProt Q08881).
T1 sequence (Q08881 1-620): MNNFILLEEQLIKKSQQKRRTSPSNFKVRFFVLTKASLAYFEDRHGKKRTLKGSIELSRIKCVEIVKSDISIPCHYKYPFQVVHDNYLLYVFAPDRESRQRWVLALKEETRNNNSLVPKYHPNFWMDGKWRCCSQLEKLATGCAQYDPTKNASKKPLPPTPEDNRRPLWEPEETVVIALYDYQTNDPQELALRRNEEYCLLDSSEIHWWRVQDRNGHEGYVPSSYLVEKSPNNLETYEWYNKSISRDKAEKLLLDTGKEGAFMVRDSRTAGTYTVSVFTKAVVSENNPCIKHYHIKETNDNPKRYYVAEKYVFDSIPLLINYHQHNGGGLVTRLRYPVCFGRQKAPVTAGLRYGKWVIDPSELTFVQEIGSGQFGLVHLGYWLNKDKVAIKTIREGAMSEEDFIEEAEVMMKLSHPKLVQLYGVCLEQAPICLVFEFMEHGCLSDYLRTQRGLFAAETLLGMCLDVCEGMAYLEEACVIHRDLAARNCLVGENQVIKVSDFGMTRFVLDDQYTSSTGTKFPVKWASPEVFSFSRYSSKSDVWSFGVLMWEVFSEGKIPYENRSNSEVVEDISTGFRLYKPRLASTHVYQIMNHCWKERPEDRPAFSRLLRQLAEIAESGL
The experiment in a line: ITK Inhibition Assay (Radiometric), radioactive-phosphate incorporation. The conditions noted are these: enzyme inhibition data (Ki), Table 11; radiometric or UV assay not stated. The procedure, abridged:
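Radiometric 33P incorporation into SAM68 peptide (D332-443) with filter capture and scintillation counting; 10 min pre-incubation then 10 min reaction at 25° C. IC50 format: 30 nM Itk, 15 μM ATP, 2 μM peptide, HEPES pH 7.5. Ki(app) format: 50 nM Itk, 7.5 μM ATP, 3 μM peptide, MOPS pH 7.0.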

Assay [2] deals with c-Met (Homo sapiens, UniProt P08581). The experiment in a line: c-Met Inhibition Assay, coupled enzyme system. The conditions noted are these: enzyme inhibition data (Ki), Table 11. In a few lines: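 Pyruvate kinase/lactate dehydrogenase-coupled NADH assay in HEPES pH 7.5 with 80 nM c-Met, 200 μM ATP and 10 μM polyGluTyr at 30° C. Compound (0.006–12.5 μM final, 12-point) preincubated 10 min before ATP start; rates over 10 min gave Ki.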

Assay [3] addresses T2, JAK3 (Homo sapiens, UniProt P52333).
T2 sequence (P52333 1-1124): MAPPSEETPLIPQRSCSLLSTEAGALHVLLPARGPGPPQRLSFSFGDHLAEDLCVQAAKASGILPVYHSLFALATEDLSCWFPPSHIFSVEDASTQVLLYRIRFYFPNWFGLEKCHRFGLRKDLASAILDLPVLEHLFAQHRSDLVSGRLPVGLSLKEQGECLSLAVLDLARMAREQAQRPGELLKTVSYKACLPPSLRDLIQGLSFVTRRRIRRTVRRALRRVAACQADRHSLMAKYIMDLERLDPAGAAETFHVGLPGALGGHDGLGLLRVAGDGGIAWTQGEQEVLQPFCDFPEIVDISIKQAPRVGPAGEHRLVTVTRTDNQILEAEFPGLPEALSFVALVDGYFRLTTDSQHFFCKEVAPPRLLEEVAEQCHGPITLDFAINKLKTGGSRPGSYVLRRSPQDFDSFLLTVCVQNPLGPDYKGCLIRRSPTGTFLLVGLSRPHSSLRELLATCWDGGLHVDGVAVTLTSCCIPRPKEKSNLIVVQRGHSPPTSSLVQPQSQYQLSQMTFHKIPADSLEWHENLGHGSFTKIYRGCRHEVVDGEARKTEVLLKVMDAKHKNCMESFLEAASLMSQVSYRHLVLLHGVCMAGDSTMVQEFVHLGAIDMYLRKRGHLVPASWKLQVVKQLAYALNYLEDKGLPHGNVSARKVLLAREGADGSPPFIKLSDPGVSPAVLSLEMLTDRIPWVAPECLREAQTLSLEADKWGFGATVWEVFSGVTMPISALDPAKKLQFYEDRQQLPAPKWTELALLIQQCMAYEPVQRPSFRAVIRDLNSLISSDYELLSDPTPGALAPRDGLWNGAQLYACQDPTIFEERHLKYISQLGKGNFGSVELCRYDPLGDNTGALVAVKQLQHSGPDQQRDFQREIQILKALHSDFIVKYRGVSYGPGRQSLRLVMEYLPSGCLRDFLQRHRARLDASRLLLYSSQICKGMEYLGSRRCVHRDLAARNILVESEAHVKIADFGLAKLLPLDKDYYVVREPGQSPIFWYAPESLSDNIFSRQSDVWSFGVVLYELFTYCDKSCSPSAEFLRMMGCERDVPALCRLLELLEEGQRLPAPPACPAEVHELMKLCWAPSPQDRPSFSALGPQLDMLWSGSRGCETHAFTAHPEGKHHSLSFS
The experiment in a line: JAK3 Inhibition Assay, 33P incorporation. The conditions noted are these: enzyme inhibition data (Ki), Table 11. In a few lines: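 33P incorporation into 1 μM poly(Glu)4Tyr was counted after TCA stop and glass fiber filtration. The 20 min reaction ran at 25 °C with 1 nM JAK3 and 5 μM ATP (200 uCi/μmole). Buffer was 100 mM HEPES pH 7.4, 10 mM MgCl2, 25 mM NaCl, 1 mM DTT, 0.01% BSA.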

Structures are written as SMILES.

Sequence of c-Met (P08581 25-1390): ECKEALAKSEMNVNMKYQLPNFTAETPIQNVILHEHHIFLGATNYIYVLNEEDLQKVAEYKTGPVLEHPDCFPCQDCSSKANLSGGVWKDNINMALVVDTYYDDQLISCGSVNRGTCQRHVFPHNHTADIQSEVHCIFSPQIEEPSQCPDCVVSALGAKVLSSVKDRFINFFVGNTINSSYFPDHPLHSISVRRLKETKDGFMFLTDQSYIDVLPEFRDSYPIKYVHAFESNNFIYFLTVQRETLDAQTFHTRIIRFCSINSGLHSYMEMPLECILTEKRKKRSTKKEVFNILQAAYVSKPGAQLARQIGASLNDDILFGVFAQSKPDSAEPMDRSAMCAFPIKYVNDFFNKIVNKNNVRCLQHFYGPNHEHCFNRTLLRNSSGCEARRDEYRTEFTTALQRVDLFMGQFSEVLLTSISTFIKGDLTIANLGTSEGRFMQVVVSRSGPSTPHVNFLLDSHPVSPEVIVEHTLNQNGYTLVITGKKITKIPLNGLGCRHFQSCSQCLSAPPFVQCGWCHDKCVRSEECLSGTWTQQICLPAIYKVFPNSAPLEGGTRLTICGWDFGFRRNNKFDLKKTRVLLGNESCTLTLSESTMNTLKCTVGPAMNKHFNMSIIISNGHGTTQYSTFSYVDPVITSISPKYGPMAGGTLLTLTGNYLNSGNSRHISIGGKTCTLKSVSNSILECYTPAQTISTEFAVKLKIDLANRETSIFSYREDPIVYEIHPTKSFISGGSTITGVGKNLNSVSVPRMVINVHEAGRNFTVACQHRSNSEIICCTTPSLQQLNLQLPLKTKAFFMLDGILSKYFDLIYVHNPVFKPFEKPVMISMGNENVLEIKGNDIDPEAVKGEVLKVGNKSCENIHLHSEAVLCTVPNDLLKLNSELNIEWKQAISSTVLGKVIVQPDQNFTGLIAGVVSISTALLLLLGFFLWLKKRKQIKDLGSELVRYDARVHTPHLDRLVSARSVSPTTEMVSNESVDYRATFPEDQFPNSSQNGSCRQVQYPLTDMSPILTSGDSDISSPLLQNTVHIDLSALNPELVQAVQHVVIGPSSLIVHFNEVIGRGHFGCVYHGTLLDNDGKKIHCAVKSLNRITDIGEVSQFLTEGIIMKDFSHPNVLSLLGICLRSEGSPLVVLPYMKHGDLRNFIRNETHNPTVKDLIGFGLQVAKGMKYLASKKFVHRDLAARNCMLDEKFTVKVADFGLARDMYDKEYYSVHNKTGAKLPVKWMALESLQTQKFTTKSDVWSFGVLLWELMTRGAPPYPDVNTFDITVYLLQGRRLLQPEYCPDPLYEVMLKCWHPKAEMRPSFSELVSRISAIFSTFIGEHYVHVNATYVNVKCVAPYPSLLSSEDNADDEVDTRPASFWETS

On to `CC(=O)N1CCN(c2ccc(-c3cnc4c(-c5ccccn5)c(N)nn4c3)cn2)CC1` [Compound V-149], for which the inhibitory constant (Ki) in assay [1] is 0.5 to 5 µM; in assay [2], under 0.5 µM; in assay [3], 0.5 to 5 µM.
As to `Nc1nn2cc(-c3ccc(N4CCN(CCOCCO)CC4)nc3)cnc2c1-c1ccccn1` [Compound V-150], the Ki is under 0.5 µM in assay [1], under 0.5 µM in assay [2] and over 5 µM in assay [3].
With `Nc1nn2cc(-c3ccc(C(=O)N4CCC[C@@H]4CN4CCCC4)cn3)cnc2c1-c1ccccn1` [Compound V-153], the Ki in assay [1] was under 0.5 µM; in assay [2] it was under 0.5 µM; in assay [3], 0.5 to 5 µM.
As to `CCN(CCN)c1ccc(-c2cnc3c(-c4ccccn4)c(N)nn3c2)cn1` [Compound V-157], the Ki is under 0.5 µM in assay [1], under 0.5 µM in assay [2] and over 5 µM in assay [3].
As to `CCCN(CCO)c1ccc(-c2cnc3c(-c4ccccn4)c(N)nn3c2)cn1` [Compound V-158], the Ki was 0.5 to 5 µM in assay [1], under 0.5 µM in assay [2] and over 5 µM in assay [3].
Consider `Nc1nn2cc(-c3ccc(NCCCC4=NCC=N4)nc3)cnc2c1-c1ccccn1` [Compound V-161], for which the Ki in assay [1] is 0.5 to 5 µM; in assay [2] it was under 0.5 µM; in assay [3] it was over 5 µM.
As to `Nc1nn2cc(-c3ccc(N4CCN(c5cnccn5)CC4)nc3)cnc2c1-c1ccccn1` [Compound V-162], the results for the Ki in assay [1], in assay [2] and in assay [3] were 0.5 to 5 µM, 0.5 to 5 µM and over 5 µM, respectively.
Turning to `Nc1nn2cc(-c3ccc(N4CCN(Cc5ccncc5)CC4)nc3)cnc2c1-c1ccccn1` [Compound V-163], the values for the Ki in assay [1], in assay [2] and in assay [3] were 0.5 to 5 µM, under 0.5 µM and over 5 µM, respectively.
The like results for `Nc1nn2cc(-c3ccc(N4CCC(N5CCCC5)CC4)nc3)cnc2c1-c1ccccn1` [Compound V-164] were, in that order, under 0.5 µM, under 0.5 µM and over 5 µM.
Regarding `CCOC(=O)C1CCCN(c2ccc(-c3cnc4c(-c5ccccn5)c(N)nn4c3)cn2)C1` (stereo not drawn) [Compound V-167], the inhibition constant (Ki) is 0.5 to 5 µM in assay [1], under 0.5 µM in assay [2] and over 5 µM in assay [3].
The matching figures for `CN(CCc1ccccn1)c1ccc(-c2cnc3c(-c4ccccn4)c(N)nn3c2)cn1` [Compound V-168]: 0.5 to 5 µM, 0.5 to 5 µM and over 5 µM.
As to `CN1CCC(N(C)c2ccc(-c3cnc4c(-c5ccccn5)c(N)nn4c3)cn2)CC1` [Compound V-169], the results for the Ki in assay [1], in assay [2] and in assay [3] were under 0.5 µM, under 0.5 µM and over 5 µM, respectively.
As for `Nc1nn2cc(-c3ccc(N4CCSCC4)nc3)cnc2c1-c1ccccn1` [Compound V-170], the Ki is 0.5 to 5 µM in assay [1], 0.5 to 5 µM in assay [2] and over 5 µM in assay [3].
For the molecule `CCN(C)c1ccc(-c2cnc3c(-c4ccccn4)c(N)nn3c2)cn1` [Compound V-171], the inhibitory constant (Ki) was 0.5 to 5 µM in assay [1], under 0.5 µM in assay [2] and over 5 µM in assay [3].
The like results for `CC(C)CN(C)c1ccc(-c2cnc3c(-c4ccccn4)c(N)nn3c2)cn1` [Compound V-172] were, in that order, 0.5 to 5 µM, 0.5 to 5 µM and over 5 µM.
On to `CCOC(=O)N1CCN(c2ccc(-c3cnc4c(-c5ccccn5)c(N)nn4c3)cn2)CC1` [Compound V-174], for which the Ki is 0.5 to 5 µM in assay [1], 0.5 to 5 µM in assay [2] and over 5 µM in assay [3].
`COc1ccc(-c2cnc3c(-c4ccccc4)c(N)nn3c2)cc1` [Compound V-186]: the Ki in assay [1] was under 0.5 µM; in assay [2], 0.5 to 5 µM; in assay [3] it was over 5 µM.
The like results for `Nc1nn2cc(-c3ccncc3)cnc2c1-c1ccccc1` [Compound V-187] were, in that order, 0.5 to 5 µM, under 0.5 µM and over 5 µM.
Turning to `N#Cc1cccc(-c2cnc3c(-c4ccccn4)c(N)nn3c2)c1` [Compound V-197], the inhibition constant Ki in assay [1] is under 0.5 µM; in assay [2], under 0.5 µM; in assay [3], over 5 µM.
As to `Nc1nn2cc(C(=O)NCCc3ccccc3)cnc2c1-c1ccccn1` [Compound V-198], the Ki in assay [1] was 0.5 to 5 µM; in assay [2], 0.5 to 5 µM; in assay [3] it was over 5 µM.
For the molecule `Nc1ccc(CNC(=O)c2cnc3c(-c4ccccn4)c(N)nn3c2)cc1` [Compound V-199], the Ki was 0.5 to 5 µM in assay [1], 0.5 to 5 µM in assay [2] and over 5 µM in assay [3].
On to `Nc1nn2cc(C(=O)NCc3cccnc3)cnc2c1-c1ccccn1` [Compound V-200], for which the inhibition constant Ki in assay [1] is 0.5 to 5 µM; in assay [2] it was 0.5 to 5 µM; in assay [3], over 5 µM.
Regarding `CC(C)(C)OC(=O)N1CCC(CNC(=O)c2cnc3c(-c4ccccn4)c(N)nn3c2)CC1` [Compound V-201], the inhibition constant Ki in assay [1] is 0.5 to 5 µM; in assay [2] it was 0.5 to 5 µM; in assay [3], over 5 µM.
On to `CC(C)CNC(=O)c1cnc2c(-c3ccccn3)c(N)nn2c1` [Compound V-205], for which the Ki in assay [1] was 0.5 to 5 µM; in assay [2] it was 0.5 to 5 µM; in assay [3], over 5 µM.
For the molecule `Nc1nn2cc(C(=O)NCc3ccccc3)cnc2c1-c1ccccn1` [Compound V-207], the inhibition constant Ki in assay [1] is 0.5 to 5 µM; in assay [2] it was 0.5 to 5 µM; in assay [3], over 5 µM.
Consider `Nc1nn2cc(/C=C/c3ccccc3)cnc2c1-c1ccccn1` [Compound V-209], for which the values for the Ki in assay [1], in assay [2] and in assay [3] were under 0.5 µM, 0.5 to 5 µM and over 5 µM, respectively.
The matching figures for `CN(C)CCN(C)C(=O)c1ccc(-c2cnc3c(Cc4ccccc4)c(N)nn3c2)nc1` [Compound V-211]: 0.5 to 5 µM, 0.5 to 5 µM and over 5 µM.
The matching figures for `Nc1nn2cc(CCc3ccccc3)cnc2c1-c1ccccn1` [Compound V-213]: 0.5 to 5 µM, 0.5 to 5 µM and over 5 µM.
Consider `Nc1nn2cc(NC(=O)c3ccccc3)cnc2c1-c1ccccn1` [Compound V-235], for which the Ki in assay [1] is 0.5 to 5 µM; in assay [2] it was 0.5 to 5 µM; in assay [3], over 5 µM.
As for `COc1ccc(-c2cnc3c([N+](=O)[O-])c(N)nn3c2)cc1` [Compound V-239], the inhibitory constant (Ki) is 0.5 to 5 µM in assay [1], 0.5 to 5 µM in assay [2] and over 5 µM in assay [3].
`COc1ccc(-c2cnc3c(N)c(N)nn3c2)cc1` [Compound V-240]: the inhibitory constant (Ki) is 0.5 to 5 µM in assay [1], 0.5 to 5 µM in assay [2] and over 5 µM in assay [3].
Regarding `COCCNc1cc(-c2cnc3c(-c4ccccn4)c(N)nn3c2)ccn1` [Compound V-245], the Ki is 0.5 to 5 µM in assay [1], under 0.5 µM in assay [2] and over 5 µM in assay [3].
